Laboratory results: paper PMC5045383 (Oncotarget, 2016)

What was measured:
MOLM-13 (FLT3-ITD/wt) = experiment: Cell proliferation assay (CellTiter-Glo); assay type: cell-based, human
Description: (§1) The human AML cell lines MV4-11, U937, OCI-AML-3 were purchased from the American Type Culture Collection (ATCC) (Manassas, VA, USA). The FLT3-ITD-expressing lines, MOLM-13, MOLM-14, were provided by Dr. Scott Armstrong, Dana Farber Cancer Institute (DFCI), Boston, MA. The wt FLT3-expressing AML line, NB4 (KRAS A18D), was obtained from Dr. Gary Gilliland. […] MV4-11 was cultured in IDMEM media (Corning, USA) with 10% FBS and supplemented with 2% L-glutamine and 1% penicillin/streptomycin. OCI-AML-3 was cultured in α-MEM media (Corning, USA) with 10% FBS and supplemented with 2% L-glutamine and 1% penicillin/streptomycin. All cell lines were maintained in culture media at 37°C with 5% CO2.
(§2) Cells were grown in 96-well culture plates (3000/well). […] Cell proliferation was determined after 72 hours drug treatment. […] Cell viability was measured with the CellTiter–Glo assay (Promega, USA), according to the manufacturer's instructions, and luminescence was measured in a multi-label reader (Envision, PerkinElmer, USA). […] GI50 values were calculated using Prism 5.0 (GraphPad Software, San Diego, CA).

MOLM-14 (FLT3-ITD/wt) = experiment: Cell proliferation assay (CellTiter-Glo); assay type: cell-based, human
Description: as §1, §2

MV4-11 (FLT3-ITD) = experiment: Cell proliferation assay (CellTiter-Glo); assay type: cell-based, human
Description: as §1, §2

NB4 (FLT3-wt) = experiment: Cell proliferation assay (CellTiter-Glo); assay type: cell-based, human; settings: 72 hours
Description: as §1, §2

OCI-AML-3 (FLT3-wt) = experiment: Cell proliferation assay (CellTiter-Glo); assay type: cell-based, human; settings: 72 hours
Description: as §1, §2

U937 (FLT3-wt) = experiment: Cell proliferation assay (CellTiter-Glo); assay type: cell-based, human
Description: as §1, §2

HL-60 (FLT3-wt) = experiment: Cell proliferation assay (CellTiter-Glo); assay type: cell-based, human; settings: 72 hours
Description: as §2

SKM-1 (FLT3-wt) = experiment: Cell proliferation assay (CellTiter-Glo); assay type: cell-based, human; settings: 72 hours
Description: as §2

PF-382 (FLT3-wt) = experiment: cells; assay type: cell-based; settings: 72 hours
Description: as §2

MOLM14 = experiment: Cell cycle analysis (PI, flow cytometry); assay type: cell-based, human; settings: MOLM14, 1 μM, 24 hours
Description: (§3) The cells were fixed in 70% cold ethanol and incubated at −20°C overnight, then stained with PI/RNase staining buffer (BD Pharmingen). Flow cytometry was performed using a FACS Calibur (BD), and results were analyzed by ModFit software.

MV4-11 [1] = experiment: Cell cycle analysis (PI, flow cytometry); assay type: cell-based, human; settings: MV4-11, 1 μM, 24 hours
Description: as §3

MOLM-13 = experiment: Combination study TCS359 + MK2206; assay type: cell-based, human; settings: TCS359 0.12 μM, MK2206 0.36 μM, alone or combined, 72 hours
Description: (§4) The FLT3-ITD-expressing lines MOLM-13, MOLM14 and MV4-11 were grown in 96-well culture plates (3000/well), respectively. Combination treatment with the FLT3 kinase inhibitor, TCS359, and with the Akt inhibitor, MK2206, was performed. Cell proliferation was determined after treatment with compounds for 72 hours. Cell viability was measured using the CellTiter–Glo assay (Promega, USA), data were normalized to control groups (DMSO) and represented by the mean of three independent measurements with standard error < 20%. CI index was calculated by Calcusyn software (Biosoft, version 2.1), using the Chou-Talalay method.

MOLM-14 = experiment: Combination study TCS359 + MK2206; assay type: cell-based, human; settings: TCS359 3.3 μM, MK2206 0.12 μM, alone or combined, 72 hours
Description: as §4

MV4-11 [2] = experiment: Combination study TCS359 + MK2206; assay type: cell-based, human; settings: TCS359 0.12 μM, MK2206 0.12 μM, alone or combined, 72 hours
Description: as §4

MOLM14, MV4-11 cells = experiment: Apoptosis effect examination (PARP, Caspase-3 immunoblot); assay type: cell-based, human; settings: at 1 μM, 24 hours
Description: Cells were then washed in PBS and lysed in cell lysis buffer. PARP, Caspase-3, GAPDH antibodies (Cell signaling Technology) were used for immunoblotting.

[3] = tested on: FLT3-ITD mediated signaling in MOLM14 and MV4-11 cell lines; experiment: Signaling pathway effect examination (immunoblot); assay type: cell-based, human; settings: 1 μM, 4 hours
Description: Cells were then washed in PBS and lysed in cell lysis buffer. FLT3, Phospho-FLT3 (Tyr589/591), AKT, Phospho-AKT Ser473, Phospho-AKT Thr308, GSK-3β, Phospho-GSK-3β (Ser9), Phospho-FoxO1 (Thr24), FoxO1, PRAS40, Phospho-PRAS40 (Thr246), STAT5, Phospho-STAT5 (Tyr694), NF-ΚB-P65, Phospho-NF-ΚB-P65 (Ser536), P70S6K, Phospho-P70S6K Thr389, 4EBP1, Phospho-4EBP1 (Thr37/46), ERK, Phospho-p44/42MAPK (Erk1/2) (Thr202/Tyr204), C-Myc and GAPDH antibodies (Cell Signaling Technology) were used for immunoblotting.

[4] = tested on: FLT3-ITD/FLT3 wt-expressing MOLM13 and MOLM14 cells
Description: as §2

[5] = Homo sapiens, MOLM-13 (FLT3-ITD/wt), 72 hours, Table 1
[6] = Homo sapiens, MOLM-14 (FLT3-ITD/wt), 72 hours, Table 1
[7] = Homo sapiens, MV4-11 (FLT3-ITD), 72 hours, Table 1
[8] = MOLM-13 (FLT3-ITD/wt), 72 hours, Table 1
[9] = MV4-11 (FLT3-ITD), 72 hours, Table 1
[10] = Homo sapiens, read-out: Relative activity(%)

Row | GI50 (MOLM-13 (FLT3-ITD/wt); [5]) [nM] | GI50 (MOLM-14 (FLT3-ITD/wt); [6]) [nM] | GI50 (MV4-11 (FLT3-ITD); [7]) [nM] | GI50 (OCI-AML-3 (FLT3-wt); Homo sapiens) [nM] | GI50 (U937 (FLT3-wt); Homo sapiens, U-937, 72 hours) [nM] | GI50 (HL-60 (FLT3-wt); Homo sapiens) [nM] | GI50 (SKM-1 (FLT3-wt); Homo sapiens) [nM] | Structure (SMILES) | GI50 (NB4 (FLT3-wt); Homo sapiens) [nM] | GI50 (PF-382 (FLT3-wt); Homo sapiens) [nM] | GI50 (MOLM-13 (FLT3-ITD/wt); [8]) [nM] | GI50 (MV4-11 (FLT3-ITD); [9]) [nM] | GI50 (NB4 (FLT3-wt)) [nM] | GI50 (OCI-AML-3 (FLT3-wt)) [nM] | GI50 (U937 (FLT3-wt); 72 hours) [nM] | %G0–G1 (MOLM14) [%] | %G2–M (MOLM14) [%] | %S (MOLM14) [%] | %G0–G1 (MV4-11 [1]) [%] | %G2–M (MV4-11 [1]) [%] | %S (MV4-11 [1]) [%] | also measured
1 | 160 | 500 | 670 | 1200 | 610 | 370 | > 10000 | NC1(C(=O)N[C@@H](CCO)c2ccc(Cl)cc2)CCN(c2ncnc3[nH]ccc23)CC1 [AZD5363] | 930 | 480 | – | – | – | – | – | – | – | – | – | – | – | –
2 | – | – | – | – | – | – | – | NC1(Cc2ccc(Cl)cc2)CCN(c2ncnc3[nH]ccc23)CC1 [CCT128930] | – | – | 650 | 1000 | 2500 | 2200 | 4100 | – | – | – | – | – | – | GI50 (MOLM-14 (FLT3-ITD/wt); MOLM-14 (FLT3-ITD/wt), 72 hours, Table 1): 1100 nM; GI50 (HL-60 (FLT3-wt)): 1500 nM; GI50 (SKM-1 (FLT3-wt)): 4300 nM; GI50 (PF-382 (FLT3-wt)): 1300 nM
3 | 290 | 850 | 2100 | 1100 | 590 | 310 | > 10000 | CC(C)NC[C@@H](C(=O)N1CCN(c2ncnc3c2[C@H](C)C[C@H]3O)CC1)c1ccc(Cl)cc1 [GDC0068] | 5900 | 440 | – | – | – | – | – | – | – | – | – | – | – | –
4 | 280 | 540 | 5200 | > 10000 | 5100 | 160 | > 10000 | CCn1c(-c2nonc2N)nc2c(C#CC(C)(C)O)ncc(OC[C@H]3CCCNC3)c21 [GSK690693] | 220 | 240 | – | – | – | – | – | 54.52 | 9.78 | 35.7 | 60.48 | 7 | 32.52 | –
5 | 100 | 320 | 5200 | 1400 | 7200 | 160 | 4600 | NC1(c2ccc(-c3nc4ccn5c(=O)[nH]nc5c4cc3-c3ccccc3)cc2)CCC1 [MK2206] | 210 | 610 | – | – | – | – | – | 63.9 | 7.3 | 28.81 | 64.92 | 7.69 | 27.39 | activity at 0.36 µM (MOLM-13; [10]): 59.3%; activity at 0.12 µM (MOLM-14; [10]): 65.5%; activity at 0.12 µM (MV4-11 [2]; [10]): 88.6%; apoptosis induction (MOLM14, MV4-11 cells): did not induce apoptosis; effect on FLT3 signaling pathway (pFLT3, pSTAT5, c-MYC) [3]: did not affect this signaling pathway
6 | – | – | – | – | – | – | – | COc1ccc(C(=O)Nc2sc3c(c2C(N)=O)CCCC3)cc1OC [TCS359] | – | – | 560 | 680 | > 10000 | > 10000 | > 10000 | 55.04 | 9.08 | 35.88 | 73.62 | 2.57 | 23.81 | GI50 (MOLM-13 (FLT3-ITD/wt); MOLM-13+FL(1 ng/mL)): > 10000 nM; GI50 (MOLM-13 (FLT3-ITD/wt); MOLM-13+FL(5 ng/mL)): > 10000 nM; GI50 (MOLM-13 (FLT3-ITD/wt); MOLM-13+FL(10 ng/mL)): > 10000 nM; GI50 (MOLM-13 (FLT3-ITD/wt); MOLM-13, no FLT3 ligand, Table 3): 420 nM; GI50 (MOLM-14 (FLT3-ITD/wt); MOLM-14+FL(1 ng/mL)): > 10000 nM; GI50 (MOLM-14 (FLT3-ITD/wt); MOLM-14+FL(5 ng/mL)): > 10000 nM; GI50 (MOLM-14 (FLT3-ITD/wt); MOLM-14+FL(10 ng/mL)): > 10000 nM; GI50 (MV4-11 (FLT3-ITD); MV4-11+FL(10 ng/mL)): 1400 nM; GI50 (MV4-11 (FLT3-ITD); MV4-11, no FLT3 ligand, Table 3): 490 nM; GI50 (HL-60 (FLT3-wt)): 540 nM; GI50 (SKM-1 (FLT3-wt)): > 10000 nM; GI50 (PF-382 (FLT3-wt)): > 10000 nM; Relative activity(%) (MOLM-13): 69.7%; Relative activity(%) (MOLM-14): 68.4%; Relative activity(%) (MV4-11 [2]): 98.9%; apoptosis induction (MOLM14, MV4-11 cells): did not induce apoptosis; fold loss of activity with FLT3 ligand stimulation [4]: 6-15 fold
